Calls of active or inactive are those of the source. The rule behind the calls is not given here.
Legend:
[1] = target: T1, CYP1A2 (Homo sapiens, UniProt P05177); assay: Inhibition of CYP1A2 (unknown origin); type: ADME
T1 sequence (P05177 whole entry): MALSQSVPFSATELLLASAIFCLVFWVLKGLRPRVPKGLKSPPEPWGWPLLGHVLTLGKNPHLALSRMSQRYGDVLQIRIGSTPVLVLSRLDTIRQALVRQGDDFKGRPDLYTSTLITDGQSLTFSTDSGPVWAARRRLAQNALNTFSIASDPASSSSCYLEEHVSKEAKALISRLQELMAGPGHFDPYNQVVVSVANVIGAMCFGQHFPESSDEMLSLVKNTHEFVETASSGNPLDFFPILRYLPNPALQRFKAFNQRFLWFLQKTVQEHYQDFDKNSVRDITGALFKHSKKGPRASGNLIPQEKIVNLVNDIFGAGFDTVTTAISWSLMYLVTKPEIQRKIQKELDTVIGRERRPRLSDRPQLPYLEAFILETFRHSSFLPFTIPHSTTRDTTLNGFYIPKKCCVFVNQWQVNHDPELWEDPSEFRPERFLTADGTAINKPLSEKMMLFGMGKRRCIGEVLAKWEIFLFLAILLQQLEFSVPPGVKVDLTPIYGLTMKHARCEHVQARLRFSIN

[2] = system: Hepatitis B virus; assay: Antiviral activity against HBV infected in human HepG2.2.15 cells assessed as reduction of 2.4/2.1 Kb HBV RNA level at 0.23 to 500 nM by Northern blot anlaysis; type: functional, organism-based; conditions: dose 0.23-500 nM
[3] = system: Hepatitis B virus; assay: Antiviral activity against HBV infected in human primary hepatocytes assessed as reduction on HBeAg level by ELISA; type: functional, organism-based; conditions: Hepatocyte
[4] = system: Hepatitis B virus; assay: In vivo antiviral activity against AAV encapsidated HBV infected in mouse assessed as reduction in HBeAg level at 10 mg/kg, po QD for 4 weeks in presence of tenofovir disoproxil fumarate by ELISA; type: functional, organism-based
[5] = system: Hepatitis B virus; assay: In vivo antiviral activity against AAV encapsidated HBV infected in mouse assessed as reduction in HBV DNA at 10 mg/kg, po QD for 4 weeks in presence of tenofovir disoproxil fumarate by qPCR method; type: functional, organism-based
[6] = Half life in C57BL/6 mouse at 1 mg/kg, iv; type: ADME, organism-based; conditions: in vivo
[7] = Glutathione reactivity assessed as GSH adduct formation; type: ADME
[8] = Cmax in Sprague-Dawley rat at 2 mg/kg, po; type: ADME, organism-based; design: dose 2 mg/kg, route po; conditions: in vivo
[9] = system: Hepatitis B virus; assay: Antiviral activity against HBV infected in human HepG2.2.15 cells assessed as reduction of 3.5 Kb HBV RNA level at 500 nM incubated for 4 to 48 hrs by Northern blot anlaysis; type: functional, organism-based; conditions: time 4-48 hrs, TDE = time-dependent effect
[10] = Toxicity in rat assessed as rectal temperature at 300 to 1000 mg/kg, po measured after 1 hrs; type: organism-based; conditions: in vivo, dose 300-1000 mg/kg
[11] = Protein binding in human plasma assessed as unbound fraction; type: ADME, cell-free
[12] = Volume of distribution in steady state in Sprague-Dawley rat at 1 mg/kg, iv; type: ADME, organism-based; conditions: in vivo, read-out: Vdss
[13] = Cmax in C57BL/6 mouse at 2 mg/kg, po; type: ADME, organism-based; design: dose 2 mg/kg, route po; conditions: in vivo
[14] = Half life in Beagle dog at 1 mg/kg, iv; type: ADME, organism-based, Canis lupus familiaris; conditions: in vivo
[15] = system: Hepatitis B virus; assay: Antiviral activity against HBV infected in human HepG2.2.15 assessed as HBV DNA reduction by qPCR method; type: functional, organism-based
[16] = Oral bioavailability in Beagle dog at 3 mg/kg; type: ADME, organism-based, Canis lupus familiaris; conditions: in vivo
[17] = system: Hepatitis B virus; assay: In vivo antiviral activity against AAV encapsidated HBV infected in mouse assessed as reduction in HBV DNA at 3 to 10 mg/kg, po QD for 4 weeks by qPCR method; type: functional, organism-based; conditions: dose 3-10 mg/kg
[18] = Toxicity in rat assessed as organ abnormality at 100 to 300 mg/kg, po QD for 14 days; type: organism-based; conditions: in vivo, 336 h, dose 100-300 mg/kg, time 14 day
[19] = system: Hepatitis B virus; assay: Antiviral activity against HBV infected in human HepG2.2.15 assessed as reduction on HBsAg level by ELISA; type: functional, organism-based
[20] = Oral bioavailability in Sprague-Dawley rat at 2 mg/kg; type: ADME, organism-based; conditions: in vivo
[21] = system: Hepatitis B virus; assay: In vivo antiviral activity against AAV encapsidated HBV infected in mouse assessed as reduction in HBsAg level at 10 mg/kg, po QD for 4 weeks in presence of tenofovir disoproxil fumarate by ELISA; type: functional, organism-based
[22] = system: Hepatitis B virus; assay: Antiviral activity against HBV infected in human HepG2.2.15 cells assessed as reduction of 2.4/2.1 Kb HBV RNA level at 500 nM incubated for 4 to 48 hrs by Northern blot anlaysis; type: functional, organism-based; conditions: time 4-48 hrs, TDE = time-dependent effect
[23] = Volume of distribution in steady state in Beagle dog at 1 mg/kg, iv; type: ADME, organism-based, Canis lupus familiaris; conditions: in vivo, read-out: Vdss
[24] = system: Hepatitis B virus; assay: In vivo antiviral activity against AAV encapsidated HBV infected in mouse assessed as reduction in HBeAg level at 3 to 10 mg/kg, po QD for 4 weeks by ELISA; type: functional, organism-based; conditions: dose 3-10 mg/kg
[25] = target: CYP2C19 (Homo sapiens, UniProt P33261); assay: Inhibition of CYP2C19 (unknown origin); type: ADME
Sequence of CYP2C19 (P33261 whole entry): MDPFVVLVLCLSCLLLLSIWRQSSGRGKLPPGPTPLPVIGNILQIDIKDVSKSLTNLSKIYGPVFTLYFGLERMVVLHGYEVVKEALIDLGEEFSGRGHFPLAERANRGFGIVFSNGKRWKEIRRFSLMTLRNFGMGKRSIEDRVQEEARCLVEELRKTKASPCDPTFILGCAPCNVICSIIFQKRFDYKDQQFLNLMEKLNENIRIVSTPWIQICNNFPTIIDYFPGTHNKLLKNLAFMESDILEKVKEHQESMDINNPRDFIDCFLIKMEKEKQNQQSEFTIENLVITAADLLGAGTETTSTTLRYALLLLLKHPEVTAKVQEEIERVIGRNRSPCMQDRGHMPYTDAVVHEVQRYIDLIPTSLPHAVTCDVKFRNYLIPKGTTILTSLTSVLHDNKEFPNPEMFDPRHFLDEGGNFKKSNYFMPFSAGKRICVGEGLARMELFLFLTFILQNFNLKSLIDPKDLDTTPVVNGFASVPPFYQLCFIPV

[26] = Toxicity in rat assessed as mild white myeloid lymphocytopenia of spleen at 1000 mg/kg, po QD for 14 days; type: organism-based; conditions: in vivo, 336 h, time 14 day
[27] = Clearance in C57BL/6 mouse at 1 mg/kg, iv; type: ADME, organism-based; conditions: in vivo
[28] = system: Hepatitis B virus; assay: Antiviral activity against HBV infected in human primary hepatocytes assessed as HBV DNA reduction at 20 uM by qPCR method; type: functional, Primary hepatocyte; design: scale not given: the % may be the effect or the level left
[29] = Apparent permeability across apical to basolateral side in human Caco-2 cells; type: ADME, cell-based
[30] = Microsomal stability in cynomolgus monkey liver microsomes assessed as intrinsic clearance measured per mg of protein; type: ADME, Macaca fascicularis, Microsome; conditions: read-out: CLH
[31] = Clearance in Beagle dog at 1 mg/kg, iv; type: ADME, organism-based, Canis lupus familiaris; conditions: in vivo
[32] = Apparent permeability across basolateral to apical side in human Caco-2 cells; type: ADME, cell-based
[33] = Clearance in Sprague-Dawley rat at 1 mg/kg, iv; type: ADME, organism-based; conditions: in vivo
[34] = Volume of distribution in steady state in C57BL/6 mouse at 1 mg/kg, iv; type: ADME, organism-based; conditions: in vivo, read-out: Vdss
[35] = Microsomal stability in rat liver microsomes assessed as intrinsic clearance measured per mg of protein; type: ADME, Microsome; conditions: read-out: CLH
[36] = target: Voltage-gated inwardly rectifying potassium channel KCNH2 (Homo sapiens, UniProt Q12809); assay: Inhibition of human ERG; type: toxicity
Sequence of Voltage-gated inwardly rectifying potassium channel KCNH2 (Q12809 whole entry): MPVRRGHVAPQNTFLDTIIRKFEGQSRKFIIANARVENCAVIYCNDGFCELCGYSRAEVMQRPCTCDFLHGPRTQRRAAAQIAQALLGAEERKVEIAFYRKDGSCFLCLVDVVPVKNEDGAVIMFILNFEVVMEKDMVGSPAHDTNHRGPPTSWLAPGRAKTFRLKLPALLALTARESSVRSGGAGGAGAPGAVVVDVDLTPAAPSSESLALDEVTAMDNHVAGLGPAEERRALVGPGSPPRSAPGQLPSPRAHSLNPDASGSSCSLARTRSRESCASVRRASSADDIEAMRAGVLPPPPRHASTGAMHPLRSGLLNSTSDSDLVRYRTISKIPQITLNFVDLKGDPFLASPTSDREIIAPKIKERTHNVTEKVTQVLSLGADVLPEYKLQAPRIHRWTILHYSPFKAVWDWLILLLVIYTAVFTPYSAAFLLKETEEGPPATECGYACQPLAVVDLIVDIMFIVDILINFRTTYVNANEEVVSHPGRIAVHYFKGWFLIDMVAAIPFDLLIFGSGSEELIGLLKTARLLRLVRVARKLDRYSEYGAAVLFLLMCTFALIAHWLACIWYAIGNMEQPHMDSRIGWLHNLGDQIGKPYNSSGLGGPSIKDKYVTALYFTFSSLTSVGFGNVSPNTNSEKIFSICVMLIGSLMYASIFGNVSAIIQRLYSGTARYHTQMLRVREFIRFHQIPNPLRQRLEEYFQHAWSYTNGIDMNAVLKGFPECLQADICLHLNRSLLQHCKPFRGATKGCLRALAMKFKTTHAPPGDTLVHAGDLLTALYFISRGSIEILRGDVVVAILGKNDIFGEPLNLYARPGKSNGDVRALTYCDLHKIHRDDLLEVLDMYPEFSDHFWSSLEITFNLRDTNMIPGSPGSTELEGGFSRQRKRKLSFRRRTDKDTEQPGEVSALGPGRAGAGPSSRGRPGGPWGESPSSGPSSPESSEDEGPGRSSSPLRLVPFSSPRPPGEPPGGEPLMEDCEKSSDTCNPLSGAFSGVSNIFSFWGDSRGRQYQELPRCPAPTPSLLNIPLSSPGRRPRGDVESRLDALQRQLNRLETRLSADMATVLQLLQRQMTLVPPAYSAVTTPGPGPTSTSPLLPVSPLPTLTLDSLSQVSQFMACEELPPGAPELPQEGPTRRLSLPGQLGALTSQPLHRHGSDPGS

[37] = target: CYP3A4 (Homo sapiens, UniProt P08684); assay: Inhibition of CYP3A4 (unknown origin); type: ADME
Sequence of CYP3A4 (P08684 whole entry): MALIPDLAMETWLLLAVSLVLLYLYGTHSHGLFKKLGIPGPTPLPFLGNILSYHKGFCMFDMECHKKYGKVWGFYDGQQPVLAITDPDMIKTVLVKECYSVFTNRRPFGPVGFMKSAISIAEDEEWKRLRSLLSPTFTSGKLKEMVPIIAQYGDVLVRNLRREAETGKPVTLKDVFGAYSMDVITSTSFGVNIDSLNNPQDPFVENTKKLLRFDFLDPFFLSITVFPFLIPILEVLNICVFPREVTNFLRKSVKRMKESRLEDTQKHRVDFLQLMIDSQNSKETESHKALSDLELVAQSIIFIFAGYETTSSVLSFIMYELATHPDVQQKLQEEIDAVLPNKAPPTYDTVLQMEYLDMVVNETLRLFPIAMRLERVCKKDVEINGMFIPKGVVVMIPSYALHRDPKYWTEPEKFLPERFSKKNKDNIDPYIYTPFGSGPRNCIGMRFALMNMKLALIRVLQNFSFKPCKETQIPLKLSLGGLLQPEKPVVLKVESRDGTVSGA

[38] = Toxicity in mouse infected with AAV encapsidated HBV assessed as change in body weight at 3 to 10 mg/kg, po QD for 4 weeks; type: organism-based; conditions: in vivo, 672 h, dose 3-10 mg/kg
[39] = Protein binding in rat plasma assessed as unbound fraction; type: ADME, cell-free
[40] = target: Cytochrome P450 3A4 (Homo sapiens, UniProt P08684); assay: Induction of CYP3A4 (unknown origin); type: ADME
Sequence of Cytochrome P450 3A4 (P08684 whole entry): as above

[41] = Microsomal stability in human liver microsomes assessed as intrinsic clearance measured per mg of protein; type: ADME, Microsome; conditions: read-out: CLH
[42] = Microsomal stability in dog liver microsomes assessed as intrinsic clearance measured per mg of protein; type: ADME, Canis lupus familiaris, Microsome; conditions: read-out: CLH
[43] = Cmax in Beagle dog at 3 mg/kg, po; type: ADME, organism-based, Canis lupus familiaris; design: dose 3 mg/kg, route po; conditions: in vivo
[44] = Microsomal stability in mouse liver microsomes assessed as intrinsic clearance measured per mg of protein; type: ADME, Microsome; conditions: read-out: CLH
[45] = Half life in Sprague-Dawley rat at 1 mg/kg, iv; type: ADME, organism-based; conditions: in vivo
[46] = system: Hepatitis B virus; assay: Antiviral activity against HBV infected in human HepG2.2.15 cells assessed as reduction of 3.5 Kb HBV RNA level at 0.23 to 500 nM by Northern blot anlaysis; type: functional, organism-based; conditions: dose 0.23-500 nM
[47] = Efflux ratio of apparent permeability from basolateral to apical side over apical to basolateral side in human Caco-2 cells; type: ADME, cell-based
[48] = system: Hepatitis B virus; assay: Antiviral activity against HBV infected in human primary hepatocytes assessed as reduction on HBsAg level by ELISA; type: functional, organism-based; conditions: Hepatocyte
[49] = AUC (0-last) in Beagle dog at 3 mg/kg, po; type: ADME, organism-based, Canis lupus familiaris; design: dose 3 mg/kg, route po; conditions: in vivo
[50] = system: Hepatitis B virus; assay: Antiviral activity against HBV infected in human HepG2.2.15 cells assessed as maximum efficacy causing reduction of 3.5 Kb HBV RNA level incubated for 16 hrs by Northern blot anlaysis; type: functional, organism-based
[51] = Oral bioavailability in C57BL/6 mouse at 2 mg/kg; type: ADME, organism-based; conditions: in vivo
[52] = system: Hepatitis B virus; assay: In vivo antiviral activity against AAV encapsidated HBV infected in mouse assessed as reduction in HBsAg level at 3 to 10 mg/kg, po QD for 4 weeks by ELISA; type: functional, organism-based; conditions: dose 3-10 mg/kg
[53] = target: CYP2D6 (Homo sapiens, UniProt P10635); assay: Inhibition of CYP2D6 (unknown origin); type: ADME
Sequence of CYP2D6 (P10635 whole entry): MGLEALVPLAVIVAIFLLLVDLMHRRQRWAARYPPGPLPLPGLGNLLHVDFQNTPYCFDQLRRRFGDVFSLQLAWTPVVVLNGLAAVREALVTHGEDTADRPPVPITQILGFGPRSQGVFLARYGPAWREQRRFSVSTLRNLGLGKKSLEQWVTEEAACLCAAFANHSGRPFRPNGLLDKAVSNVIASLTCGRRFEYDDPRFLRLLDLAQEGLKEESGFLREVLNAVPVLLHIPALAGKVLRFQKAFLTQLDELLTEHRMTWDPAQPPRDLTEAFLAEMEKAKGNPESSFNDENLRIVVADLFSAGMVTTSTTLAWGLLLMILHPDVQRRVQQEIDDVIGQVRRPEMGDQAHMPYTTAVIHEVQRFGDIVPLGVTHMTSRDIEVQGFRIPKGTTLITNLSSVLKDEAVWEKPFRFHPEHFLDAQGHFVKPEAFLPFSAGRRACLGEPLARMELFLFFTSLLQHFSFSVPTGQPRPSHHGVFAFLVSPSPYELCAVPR

[54] = target: CYP2C9 (Homo sapiens, UniProt P11712); assay: Inhibition of CYP2C9 (unknown origin); type: ADME
Sequence of CYP2C9 (P11712 whole entry): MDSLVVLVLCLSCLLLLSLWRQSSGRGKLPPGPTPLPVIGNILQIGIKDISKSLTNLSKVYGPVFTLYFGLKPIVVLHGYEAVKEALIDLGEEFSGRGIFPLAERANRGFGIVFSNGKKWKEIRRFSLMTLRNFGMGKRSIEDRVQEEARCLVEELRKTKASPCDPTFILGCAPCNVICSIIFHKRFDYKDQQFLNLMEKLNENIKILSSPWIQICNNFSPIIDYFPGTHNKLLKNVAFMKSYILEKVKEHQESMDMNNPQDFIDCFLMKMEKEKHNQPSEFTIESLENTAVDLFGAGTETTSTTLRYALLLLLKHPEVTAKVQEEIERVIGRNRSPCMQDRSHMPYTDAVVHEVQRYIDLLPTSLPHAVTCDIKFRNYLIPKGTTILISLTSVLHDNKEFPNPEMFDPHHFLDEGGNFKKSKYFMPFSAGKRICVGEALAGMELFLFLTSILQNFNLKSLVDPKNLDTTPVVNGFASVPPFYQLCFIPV

## COCCCOc1cc2c(cc1OC)-c1cc(=O)c(C(=O)O)cn1[C@H](C(C)(C)C)CO2
[1]
  IC50: > 50000 nM
[2]
  Activity: Dose-Dependent Effect
[3]
  EC50: 16 nM
[4]
  Activity: inactive
[5]
  Activity: Active
[6]
  half-life: 2.5 h
[7]
  Activity: Not Active
[8]
  Cmax: 659 nM
[9]
  Activity: Tde
[10]
  Activity: Non-Toxic
[11]
  fraction unbound: 0.44
[12]
  Vd: 1.72 L/kg
[13]
  Cmax: 1060 nM
[14]
  half-life: 3.39 h
[15]
  EC50: 2.6 nM
[16]
  bioavailability: 93.2%
[17]
  Activity: inactive
[18]
  Activity: Non-Toxic
[19]
  EC50: 3.9 nM
[20]
  bioavailability: 71.1%
[21]
  Activity: inactive
[22]
  Activity: Tde
[23]
  Vd: 1.08 L/kg
[24]
  Activity: Dose-Dependent Effect
[25]
  IC50: > 50000 nM
[26]
  Activity: Toxic
[27]
  clearance: 75 mL/min/kg
[28]
  Activity: 50%
[29]
  Papp A→B: 1.4 ×10⁻⁶ cm/s
[30]
  microsomal CLint: < 7.5 µL/min/mg
[31]
  clearance: 4.04 mL/min/kg
[32]
  Papp B→A: 20.4 ×10⁻⁶ cm/s
[33]
  clearance: 28 mL/min/kg
[34]
  Vd: 5.8 L/kg
[35]
  microsomal CLint: < 7.5 µL/min/mg
[36]
  IC50: > 30000 nM
[37]
  IC50: > 50000 nM
[38]
  Activity: Non-Toxic
[39]
  fraction unbound: 0.414
[40]
  Activity: Not Active
[41]
  microsomal CLint: < 7.5 µL/min/mg
[42]
  microsomal CLint: < 7.5 µL/min/mg
[43]
  Cmax: 4850 nM
[44]
  microsomal CLint: < 7.5 µL/min/mg
[45]
  half-life: 2 h
[46]
  Activity: Dose-Dependent Effect
[47]
  efflux ratio: 14.1
[48]
  EC50: 28.2 nM
[49]
  AUC(0-t): 26.5 µM·h
[50]
  Activity: Active
[51]
  bioavailability: 91.6%
[52]
  Activity: Dose-Dependent Effect
[53]
  IC50: > 50000 nM
[54]
  IC50: > 50000 nM
